Results reported in patent publication US20250213597A1, “AGENT FOR INDUCING PROLIFERATION OR DIFFERENTIATION OF CHONDROCYTE” (TOHOKU UNIVERSITY, priority 2022, published 2025).

Test system: ATDC5 cells
Assay: Proliferation test of ATDC5 cells
Format: cell-based
Protocol: ATDC5 cells were cultured at a cell density of 5×10^5 cells/35 mm dish. As the culture solution, DMEM-Ham's F12 medium containing 5% FBS and 1% Pen/Strep was used. Adjustment was conducted to final concentrations of MPMBP of 10 μM (M10) and 100 μM (M100), clodronate of 10 μM (C10) and 100 μM (C100), zoledronate of 10 μM (Z10) and 100 μM (Z100) and a control (Vehicle), and the cells were cultured under the conditions of 5% CO2 at 37° C. The medium was changed every three days.

Row | SMILES | number of cells (third day of culture, 10 μM) | number of cells (third day of culture, 100 μM) | number of cells (sixth day of culture, 10 μM) | number of cells (sixth day of culture, 100 μM)
1 | O=P(O)(O)C(Cl)(Cl)P(=O)(O)O [clodronate] | increased | increased |  | 
2 | O=P(O)(O)C(O)(Cn1ccnc1)P(=O)(O)O [zoledronate] | decreased | decreased | decreased significantly | decreased significantly
